ChEMBL document CHEMBL5257079, “Discovery of FXR/PPARγ dual partial agonist” (Bioorg Med Chem, 2023)
Activity calls are given as the source filed them. The rule behind the calls is not given here.

How the values were obtained:
[1] = molecular target: T1, Bile acid receptor (Homo sapiens, UniProt Q96RI1); experiment: Antagonist activity at FXR-LBD-GST (unknown origin) in presence of GW4064
T1 sequence (Q96RI1 whole entry): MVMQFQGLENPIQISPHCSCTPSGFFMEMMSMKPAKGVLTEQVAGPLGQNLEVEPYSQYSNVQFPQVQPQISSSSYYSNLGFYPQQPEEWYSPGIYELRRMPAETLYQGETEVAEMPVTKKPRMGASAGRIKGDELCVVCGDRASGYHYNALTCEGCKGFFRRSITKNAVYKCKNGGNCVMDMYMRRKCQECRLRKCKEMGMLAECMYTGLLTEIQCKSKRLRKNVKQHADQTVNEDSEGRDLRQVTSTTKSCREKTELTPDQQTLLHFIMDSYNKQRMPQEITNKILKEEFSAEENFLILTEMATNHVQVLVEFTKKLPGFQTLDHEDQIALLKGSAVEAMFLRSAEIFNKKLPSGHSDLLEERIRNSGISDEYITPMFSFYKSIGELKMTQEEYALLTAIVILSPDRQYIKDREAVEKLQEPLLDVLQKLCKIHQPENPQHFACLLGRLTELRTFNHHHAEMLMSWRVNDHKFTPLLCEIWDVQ

[2] = molecular target: T2, Bile acid receptor (Homo sapiens) (UniProt Q96RI1); experiment: Antagonist activity at FXR-LBD-GST (unknown origin) in presence of GW4064 relative to control; parameters: scale not given: the % may be the effect or the level left
T2 sequence (whole entry): T1 sequence (Q96RI1 whole entry)

[3] = molecular target: T3, G-protein coupled bile acid receptor 1 (Homo sapiens) (UniProt Q8TDU6); experiment: Activation of TGR5 (unknown origin) at 10 uM
T3 sequence (whole entry): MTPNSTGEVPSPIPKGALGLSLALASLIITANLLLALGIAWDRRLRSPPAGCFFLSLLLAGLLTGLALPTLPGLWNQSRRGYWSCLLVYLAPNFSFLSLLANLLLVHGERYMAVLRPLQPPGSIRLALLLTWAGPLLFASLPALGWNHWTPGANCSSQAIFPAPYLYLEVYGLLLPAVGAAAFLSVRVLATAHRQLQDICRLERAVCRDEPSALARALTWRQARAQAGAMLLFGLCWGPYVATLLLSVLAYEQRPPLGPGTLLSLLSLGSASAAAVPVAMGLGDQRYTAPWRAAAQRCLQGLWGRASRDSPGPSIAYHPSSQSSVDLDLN

[4] = molecular target: T2, Bile acid receptor (Homo sapiens); experiment: Partial agonist activity at FXR in human Huh-7 cells assessed as reduction in CDCA-induced SREBP gene expression at 10 uM by RT-PCR analysis; type: cell-based; conditions: filed as partial agonist
[5] = molecular target: T4, Oxysterols receptor LXR-beta (Homo sapiens) (UniProt P55055); experiment: Activation of LXR beta (unknown origin) at 10 uM
T4 sequence (whole entry): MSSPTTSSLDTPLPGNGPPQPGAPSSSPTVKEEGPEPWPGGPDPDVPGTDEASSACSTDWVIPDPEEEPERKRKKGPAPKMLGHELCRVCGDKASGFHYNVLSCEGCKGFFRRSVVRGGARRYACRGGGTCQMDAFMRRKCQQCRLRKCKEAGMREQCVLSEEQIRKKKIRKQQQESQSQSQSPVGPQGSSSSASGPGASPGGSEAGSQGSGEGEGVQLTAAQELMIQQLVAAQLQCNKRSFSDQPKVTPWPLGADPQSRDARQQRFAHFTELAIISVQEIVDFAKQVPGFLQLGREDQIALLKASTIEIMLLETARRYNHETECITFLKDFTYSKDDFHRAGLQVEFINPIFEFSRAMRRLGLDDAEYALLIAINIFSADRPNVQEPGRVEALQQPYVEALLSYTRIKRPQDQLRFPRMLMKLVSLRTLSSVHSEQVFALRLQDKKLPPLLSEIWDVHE

[6] = molecular target: T2, Bile acid receptor (Homo sapiens); experiment: Partial agonist activity at FXR in human Huh-7 cells assessed as reduction in CDCA-induced OSTalpha gene expression at 10 uM by RT-PCR analysis; type: cell-based; conditions: filed as partial agonist
[7] = molecular target: T1, Bile acid receptor; experiment: Partial agonist activity at human FXR expressed in Huh-7 cells in presence of CDCA by luciferase reporter gene assay; type: cell-based
[8] = molecular target: T5, Peroxisome proliferator-activated receptor delta (Homo sapiens) (UniProt Q03181); experiment: Activation of PPARdelta (unknown origin) at 10 uM
T5 sequence (whole entry): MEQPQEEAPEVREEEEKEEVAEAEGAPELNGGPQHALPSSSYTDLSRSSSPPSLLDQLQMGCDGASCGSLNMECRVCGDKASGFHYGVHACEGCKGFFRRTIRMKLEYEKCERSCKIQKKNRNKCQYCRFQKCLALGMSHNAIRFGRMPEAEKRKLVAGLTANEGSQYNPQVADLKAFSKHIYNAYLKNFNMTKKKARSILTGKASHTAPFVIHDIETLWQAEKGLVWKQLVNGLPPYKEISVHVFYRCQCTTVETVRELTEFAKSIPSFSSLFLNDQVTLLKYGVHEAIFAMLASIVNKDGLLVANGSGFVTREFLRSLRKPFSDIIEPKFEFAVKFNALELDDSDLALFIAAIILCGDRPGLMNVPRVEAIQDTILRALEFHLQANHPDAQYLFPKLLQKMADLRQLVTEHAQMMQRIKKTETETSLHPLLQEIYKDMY

[9] = Metabolic stability in mouse liver microsomes assessed as half life; type: ADME, Microsome
[10] = molecular target: T6, Peroxisome proliferator-activated receptor gamma (Mus musculus) (UniProt P37238); experiment: Inhibition of TNFalpha stimulated PPARgamma phosphorylation at Ser273 residue in mouse 3T3-L1 cells preincubated for 60 mins followed by TNFalpha addition for 90 mins by Western blot analysis; type: cell-based; conditions: time 150.0 min
T6 sequence (whole entry): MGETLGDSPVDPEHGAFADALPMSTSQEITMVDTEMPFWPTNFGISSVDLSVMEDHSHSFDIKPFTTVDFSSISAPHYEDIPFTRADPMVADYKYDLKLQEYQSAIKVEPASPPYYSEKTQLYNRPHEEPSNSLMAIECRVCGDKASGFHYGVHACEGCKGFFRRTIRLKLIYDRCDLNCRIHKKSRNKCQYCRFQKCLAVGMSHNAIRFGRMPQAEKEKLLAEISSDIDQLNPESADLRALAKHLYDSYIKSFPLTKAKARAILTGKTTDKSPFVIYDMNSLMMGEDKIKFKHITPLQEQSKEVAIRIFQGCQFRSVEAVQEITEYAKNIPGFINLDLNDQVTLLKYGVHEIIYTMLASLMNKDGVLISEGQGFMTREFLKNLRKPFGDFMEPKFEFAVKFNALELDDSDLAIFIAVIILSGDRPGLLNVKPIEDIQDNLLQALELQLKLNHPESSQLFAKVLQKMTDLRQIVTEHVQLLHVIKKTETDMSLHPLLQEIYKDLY

[11] = molecular target: T2, Bile acid receptor (Homo sapiens); experiment: Activation of FXR (unknown origin) at 10 uM; conditions: filed as activator

IC50 [1]: 20.7 µM | Activity [2]: 30% | Activity [3]: inactive | Activity [4]: Active | Activity [5]: inactive | Activity [6]: Active | EC50 [7]: 1.9 µM | Activity [8]: inactive | half-life [9]: 57 min | inhibition [10]: Dose-Dependent Effect | Activity [11]: Active
Compound: CC(C)(C)c1ccc(-n2cnc3c(NC(=O)Cc4ccc(C(=O)O)cc4)cccc32)cc1
